Structures can show the parent of a compound that is named as a salt.
These compounds were tested against T1, Calcium sensing receptor (hCaSR) (Homo sapiens, UniProt P41180) (assay: In-vitro assay of calcimimetics through modulation of calcium sensing receptor (intracellular calcium increase, FLIPR)). Details: stably transfected HEK293 cells expressing hCaSR; Fluo4NW dye; 0.3 mM CaCl2; 8-point assay; read-out: EC50 in range.
T1 construct: expressed in transfected cells; host or cells: HEK293 (stably transfected)
T1 sequence (P41180 20-1078): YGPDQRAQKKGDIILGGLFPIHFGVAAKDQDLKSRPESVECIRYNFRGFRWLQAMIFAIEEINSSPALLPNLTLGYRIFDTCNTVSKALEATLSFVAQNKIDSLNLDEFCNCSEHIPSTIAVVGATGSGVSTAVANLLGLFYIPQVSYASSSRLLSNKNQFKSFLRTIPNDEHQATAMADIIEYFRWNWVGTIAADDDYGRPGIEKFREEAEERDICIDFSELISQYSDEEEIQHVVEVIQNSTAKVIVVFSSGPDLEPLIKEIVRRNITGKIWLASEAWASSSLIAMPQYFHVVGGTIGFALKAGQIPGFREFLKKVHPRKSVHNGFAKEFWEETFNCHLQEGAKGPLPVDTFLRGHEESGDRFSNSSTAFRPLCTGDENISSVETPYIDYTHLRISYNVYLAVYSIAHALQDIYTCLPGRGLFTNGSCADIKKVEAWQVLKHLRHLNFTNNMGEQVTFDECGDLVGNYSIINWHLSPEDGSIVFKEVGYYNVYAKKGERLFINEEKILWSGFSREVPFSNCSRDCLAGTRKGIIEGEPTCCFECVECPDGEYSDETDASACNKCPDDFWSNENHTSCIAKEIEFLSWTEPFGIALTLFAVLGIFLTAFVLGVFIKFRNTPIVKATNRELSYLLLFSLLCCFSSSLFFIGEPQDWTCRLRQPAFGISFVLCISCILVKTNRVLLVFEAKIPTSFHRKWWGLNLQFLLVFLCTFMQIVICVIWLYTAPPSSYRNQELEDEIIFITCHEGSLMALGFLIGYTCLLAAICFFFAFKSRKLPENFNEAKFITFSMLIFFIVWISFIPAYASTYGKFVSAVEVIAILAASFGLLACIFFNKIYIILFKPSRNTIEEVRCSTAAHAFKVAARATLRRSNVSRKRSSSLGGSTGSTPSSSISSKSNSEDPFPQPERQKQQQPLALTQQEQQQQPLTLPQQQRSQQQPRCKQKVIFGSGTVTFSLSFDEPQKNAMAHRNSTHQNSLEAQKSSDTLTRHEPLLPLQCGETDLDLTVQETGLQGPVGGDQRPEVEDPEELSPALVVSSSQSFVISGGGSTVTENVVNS
Format: cell-based
Summary of the method: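 Stably transfected HEK293 cells expressing hCaSR, loaded 30 min with Fluo4NW dye. Intracellular calcium rise measured on FLIPR in 20 mM HEPES buffer with 0.3 mM CaCl2. EC50 derived from 8-point concentration series.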

Structure (SMILES) | EC50
CCC(N[C@H](C)c1cccc(OC)c1)c1cc(-c2ccc(F)c(CCC(=O)O)c2)c2ccccc2c1 (stereo partly drawn) [Example 140, 3-(2-Fluoro-5-(3-(1-(((R)-1-(3-methoxyphenyl)ethyl)amino)propyl)naphthalen-1-yl)phenyl)propanoic acid hydrochloride] | 50 to 400 nM
CCOc1cccc([C@@H](C)NC(CC)c2cc(-c3ccc(F)c(CCC(=O)O)c3)c3ccccc3c2)c1 (stereo partly drawn) [Example 141, 3-(5-(3-(1-(((R)-1-(3-Ethoxyphenyl)ethyl)amino)propyl)naphthalen-1-yl)-2-fluorophenyl) propanoic acid hydrochloride] | 20 to 50 nM
CCOc1cccc([C@@H](C)NC(C)c2cc(-c3ccc(F)c(CCC(=O)O)c3)c3ccccc3c2)c1 (stereo partly drawn) [Example 142, 3-(5-(3-(1-(((R)-1-(3-Ethoxyphenyl)ethyl)amino)ethyl)naphthalen-1-yl)-2-fluorophenyl) propanoic acid hydrochloride] | < 20 nM
CCOc1cccc([C@@H](C)NC(C)c2cc(-c3ccc(C)c(C(=O)O)c3)c3ccccc3c2)c1 (stereo partly drawn) [Example 143, 5-(3-(1-(((R)-1-(3-Ethoxyphenyl)ethyl)amino)ethyl)naphthalen-1-yl)-2-methylbenzoic acid hydrochloride] | 20 to 50 nM
CC(N[C@H](C)c1cccc(Cl)c1)c1cc(-c2ccc(F)c(CCC(=O)O)c2)c2ccccc2c1 (stereo partly drawn) [Example 144, 3-(5-(3-(1-(((R)-1-(3-Chlorophenyl)ethyl)amino)ethyl)naphthalen-1-yl)-2-fluorophenyl)propanoic acid hydrochloride] | 20 to 50 nM
COc1cccc([C@@H](C)NC(C)c2cc(-c3ccc(C(F)(F)F)c(CCC(=O)O)c3)c3ccccc3c2)c1 (stereo partly drawn) [Example 145, 3-(5-(3-(1-(((R)-1-(3-Methoxyphenyl)ethyl)amino)ethyl)naphthalen-1-yl)-2-(trifluoromethyl)phenyl)propanoic acid hydrochloride] | 50 to 400 nM
CC(N[C@H](C)c1cccc(Cl)c1)c1cc(-c2ccc(C(F)(F)F)c(CCC(=O)O)c2)c2ccccc2c1 (stereo partly drawn) [Example 146, 3-(5-(3-(1-(((R)-1-(3-Chlorophenyl)ethyl)amino)ethyl)naphthalen-1-yl)-2-(trifluoromethyl)phenyl)propanoic acid hydrochloride] | 50 to 400 nM
COc1cccc([C@@H](C)NC(C)c2cc(-c3cc(F)cc(CCC(=O)O)c3)c3cc(F)ccc3c2)c1 (stereo partly drawn) [Example 147, 3-(3-Fluoro-5-(7-fluoro-3-(1-(((R)-1-(3-methoxyphenyl)ethyl)amino)ethyl)naphthalen-1-yl)phenyl)propanoic acid hydrochloride] | 50 to 400 nM
CCC(N[C@H](C)c1cccc(OC)c1)c1cc(-c2cc(F)cc(CCC(=O)O)c2)c2ccccc2c1 (stereo partly drawn) [Example 148, 3-(3-Fluoro-5-(3-(1-(((R)-1-(3-methoxyphenyl)ethyl)amino)propyl)naphthalen-1-yl)phenyl)propanoic acid hydrochloride] | 50 to 400 nM
CCC(N[C@H](C)c1cccc(OC)c1)c1cc(-c2ccc(C)c(C(=O)O)c2)c2ccccc2c1 (stereo partly drawn) [Example 149, 5-(3-(1-(((R)-1-(3-Methoxyphenyl)ethyl)amino)propyl)naphthalen-1-yl)-2-methylbenzoic acid hydrochloride] | 50 to 400 nM
COc1cc(C(=O)O)cc(-c2cc(C(C)N[C@H](C)c3cccc(OC)c3)cc3ccccc23)c1 (stereo partly drawn) [Example 150, 3-Methoxy-5-(3-(1-(((R)-1-(3-methoxyphenyl)ethyl)amino)ethyl)naphthalen-1-yl)benzoic acid hydrochloride] | 50 to 400 nM
COc1cccc([C@@H](C)NC(C)c2cc(-c3cc(F)cc(OC(C)(C)C(=O)O)c3)c3ccccc3c2)c1 (stereo partly drawn) [Example 151, 2-(3-Fluoro-5-(3-(1-(((R)-1-(3-methoxyphenyl)ethyl)amino)ethyl)naphthalen-1-yl)phenoxy)-2-methylpropanoic acid hydrochloride] | 50 to 400 nM
CCC(N[C@H](C)c1cccc(Cl)c1)c1cc(-c2ccc(F)c(CCC(=O)O)c2)c2ccccc2c1 (stereo partly drawn) [Example 152, 3-(5-(3-(1-(((R)-1-(3-Chlorophenyl)ethyl)amino)propyl)naphthalen-1-yl)-2-fluorophenyl)propanoic acid hydrochloride] | 50 to 400 nM
CCOc1cccc([C@@H](C)NC(C)c2cc(-c3ccc(C)c(CCC(=O)OC(C)C)c3)c3ccccc3c2)c1 (stereo partly drawn) [Example 154, Isopropyl 3-(5-(3-(1-(((R)-1-(3-ethoxyphenyl)ethyl)amino)ethyl)naphthalen-1-yl)-2-methylphenyl) propanoate hydrochloride] | 50 to 400 nM
COC(=O)c1cc(-c2cc(CN[C@H](C)c3cccc(OC)c3)cc3ccccc23)ccc1C [Example 155, (R)-Methyl 5-(3-(((1-(3-methoxyphenyl)ethyl)amino)methyl)naphthalen-1-yl)-2-methylbenzoate hydrochloride] | < 20 nM
CCOc1cccc([C@@H](C)NC(C)c2cc(-c3ccc(C)c(CCC(=O)O)c3)c3ccccc3c2)c1 (stereo partly drawn) [Example 157, 3-(5-(3-(1-(((R)-1-(3-Ethoxyphenyl)ethyl)amino)ethyl)naphthalen-1-yl)-2-methylphenyl) propanoic acid hydrochloride] | < 20 nM
CCOc1cccc([C@@H](C)NC(C)c2cc(-c3cc(F)cc(CCC(=O)O)c3)c3ccccc3c2)c1 (stereo partly drawn) [Example 158, 3-(3-(3-(1-(((R)-1-(3-Ethoxyphenyl)ethyl)amino)ethyl)naphthalen-1-yl)-5-fluorophenyl) propanoic acid hydrochloride] | < 20 nM
CC(N[C@H](C)c1cccc(Cl)c1)c1cc(-c2ccc(S(C)(=O)=O)cc2)c2ccccc2c1 (stereo partly drawn) [Example 159, (1R)-1-(3-Chlorophenyl)-N-(1-(4-(4-(methylsulfonyl)phenyl)naphthalen-2-yl)ethyl)ethanamine hydrochloride] | 50 to 400 nM
COc1cccc([C@@H](C)NC(C)c2cc(-c3cc(F)cc(N4CCOCC4)c3)c3ccccc3c2)c1 (stereo partly drawn) [Example 161, 1-(4-(3-Fluoro-5-morpholinophenyl)naphthalen-2-yl)-N-((R)-1-(3-methoxyphenyl)ethyl)ethanamine hydrochloride] | < 20 nM
COc1cccc([C@@H](C)NC(C)c2cc(-c3ccc(C(F)(F)F)cc3)c3ccc(F)cc3c2)c1 (stereo partly drawn) [Example 162, (1R)-1-(3-methoxyphenyl)-N-(1-(7-fluoro-4-(4-(trifluoromethyl)phenyl)naphthalen-2-yl)ethyl)ethanamine hydrochloride] | < 20 nM
